The values that follow come from patent publication US10195243B2, “Process of making wine from a whole grape bunch, process of making pomace juice and powder, and method of producing beverages on the basis of juice and powder from a grape bunch” (priority 2014, dated 2019).

In this test the test system is Molt-4-luc leukemia. The note with it: positive control group.

Protocol: The objective was to evaluate the anti-tumor efficacy of different compounds in leukemia model in Balb/c nude mice.
Female Balb/c nude mice, with a body weight of approximately 20 grams, were obtained from an approved vendor (Shanghai BK Laboratory Animal Co., LTD., Shanghai, China). Upon arrival, animals were assessed as to their general health by a member of a veterinary staff or authorized personnel. Animals were acclimated for at least three days (upon arrival at the experiment room) before being used for the study. Animals were housed in groups during acclimation and individually housed during in-life. […] Temperature and relative humidity were monitored daily. […]
The tumor cells were routinely subcultured twice weekly. The cells growing in an exponential growth phase were harvested and counted for tumor inoculation. […]
Mice were randomly assigned to 16 groups (vehicle control, positive control, and 14 testing article groups) based on the body weight. […] Whole body and metastatic bioluminescence were measured and recorded.
The inoculated mice were weighted and intraperitoneally injected luciferin at 150 mg/kg. […] The bioluminescence of the whole animal body, including primary and metastatic tumors, was measured and images are recorded.
Bioluminescence (BL) of the whole animal body, including primary and metastatic tumors, was measured and images were recorded using a fixed intensity scale. […]

With `O=P1(N(CCCl)CCCl)NCCCO1` (centres unmarked) [Cyclophosphamide], the “outcome until day 150” value is “died”. Further, the mice died result (day 111 after cell injection, the mouse showed bioluminescence signal) was “one”.
